This is an account of results in patent publication US8796256B2 (Janssen Pharmaceutica NV, priority 2010, dated 2014).

The term EC50 denotes the concentration that produces a half-maximal response. A low value points to higher potency in that assay.

The target in the experiment is T1, ERR1 (also known as ERR-α or ERR-1) (Homo sapiens, UniProt P11474).
T1 sequence (P11474 193-421 limits assumed): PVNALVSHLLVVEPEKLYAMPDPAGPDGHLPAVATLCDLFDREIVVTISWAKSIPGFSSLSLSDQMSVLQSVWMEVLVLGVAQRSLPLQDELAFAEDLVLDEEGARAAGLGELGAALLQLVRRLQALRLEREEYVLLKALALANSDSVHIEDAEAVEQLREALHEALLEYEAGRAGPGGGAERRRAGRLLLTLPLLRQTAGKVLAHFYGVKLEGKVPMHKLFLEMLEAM
The experiment in a line: TR-FRET assay (disruption of co-activator peptide binding to ERR1 LBD). Format: biochemical. Conditions: 6 nM 6His-ERR1LBD, 6 nM GST-SRC-2 peptide; average of 3 independent experiments. Summed up:
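His-tagged ERR1 ligand-binding domain and GST-labelled SRC-2 peptide, each 6 nM, equilibrated at 25° C for 4-18 h in Tris pH 8/Hepes/KCl/DTT/delipidated BSA buffer. Compound-induced loss of co-activator binding read as Eu cryptate→XL665 energy transfer; values from hyperbolic curve fits averaged over 3 independent runs.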
For orientation: In TR-FRET formats the signal depends on donor and acceptor labels being close together.
In the case of `O=C1S/C(=C\c2ccc3c(cnn3Cc3ccc(C(F)(F)F)cc3C(F)(F)F)c2)C(=O)N1C[C@H]1CN2CCC[C@H]2CO1` [Compound 208, (5Z)-5-({1-[2,4-Bis(trifluoromethyl)benzyl]-1H-indazol-5-yl}methylidene)-3-[(3R,8aS)-hexahydro-1H-pyrrolo[2,1-c][1,4]oxazin-3-ylmethyl]-1,3-thiazolidine-2,4-dione], the EC50 was determined as 136 nM.

`Cc1nc(CN2C(=O)S/C(=C\c3ccc4c(c3)nnn4Cc3ccc(Cl)cc3C(F)(F)F)C2=O)n[nH]1` [Compound 263, (5Z)-5-({1-[4-Chloro-2-(trifluoromethyl)benzyl]-1H-benzotriazol-5-yl}methylidene)-3-[(5-methyl-1H-1,2,4-triazol-3-yl)methyl]-1,3-thiazolidine-2,4-dione] displayed an EC50 of 16 nM.

As to `N[C@H]1C[C@H](CN2C(=O)S/C(=C\c3ccc4c(cnn4Cc4ccc(Cl)cc4C(F)(F)F)c3)C2=O)C1` [Compound 100, (5Z)-3-[(trans-3-Aminocyclobutyl)methyl]-5-({1-[4-chloro-2-(trifluoromethyl)benzyl]-1H-indazol-5-yl}methylidene)-1,3-thiazolidine-2,4-dione], the EC50 worked out at 46 nM.

Regarding `O=C(O)/C=C/CN1C(=O)S/C(=C\c2ccc3c(cnn3Cc3ccc(Cl)cc3C(F)(F)F)c2)C1=O` [Compound 376, (2E)-4-[(5Z)-5-({1-[4-Chloro-2-(trifluoromethyl)benzyl]-1H-indazol-5-yl}methylidene)-2,4-dioxo-1,3-thiazolidin-3-yl]but-2-enoic acid], the response was half-maximal at 65 nM (EC50). The EC50 values of the last two compounds are within 1.5-fold of each other.

`O=C(O)C1CC(N2C(=O)S/C(=C\c3ccc4c(cnn4Cc4ccc(C(F)(F)F)cc4C(F)(F)F)c3)C2=O)C1` (stereo not drawn) [Compound 70, 3-[(5Z)-5-({1-[2,4-Bis(trifluoromethyl)benzyl]-1H-indazol-5-yl}methylidene)-2,4-dioxo-1,3-thiazolidin-3-yl]cyclobutanecarboxylic acid] showed an EC50 of 48 nM.

On to `N[C@H]1CC[C@H](N2C(=O)S/C(=C\c3ccc4c(cnn4Cc4ccc(Cl)cc4C(F)(F)F)c3)C2=O)CC1` [Compound 176, (5Z)-3-(trans-4-Aminocyclohexyl)-5-({1-[4-chloro-2-(trifluoromethyl)benzyl]-1H-indazol-5-yl}methylidene)-1,3-thiazolidine-2,4-dione], for which the EC50 turned out to be 58 nM.

In turn, `COC(=O)[C@H](COC(C)(C)C)N1C(=O)S/C(=C\c2ccc3c(cnn3Cc3ccc(Cl)cc3C(F)(F)F)c2)C1=O` [Compound 210, Methyl (2S)-3-tert-butoxy-2-[(5Z)-5-({1-[4-chloro-2-(trifluoromethyl)benzyl]-1H-indazol-5-yl}methylidene)-2,4-dioxo-1,3-thiazolidin-3-yl]propanoate] had an EC50 of 260 nM.

The compound `O=C(O)C(CC1CCNCC1)N1C(=O)S/C(=C\c2ccc3c(cnn3Cc3ccc(Cl)cc3C(F)(F)F)c2)C1=O` (stereo not drawn) [Compound 228, 2-[(5Z)-5-({1-[4-Chloro-2-(trifluoromethyl)benzyl]-1H-indazol-5-yl}methylidene)-2,4-dioxo-1,3-thiazolidin-3-yl]-3-piperidin-4-ylpropanoic acid] displayed an EC50 of 49 nM. Compared with the last compound, the EC50 is about 5.3-fold lower.

Regarding `O=C(O)[C@H]1CCCN1CCN1C(=O)S/C(=C\c2ccc3c(ccn3Cc3ccc(C(F)(F)F)cc3C(F)(F)F)c2)C1=O` [Compound 248, 1-{2-[(5Z)-5-({1-[2,4-Bis(trifluoromethyl)benzyl]-1H-indol-5-yl}methylidene)-2,4-dioxo-1,3-thiazolidin-3-yl]ethyl}-D-proline], the EC50 was 290 nM.

The compound `NN1C(=O)S/C(=C\c2ccc3c(cnn3Cc3ccc(Cl)cc3C(F)(F)F)c2)C1=O` [Compound 355, (5Z)-3-Amino-5-({1-[4-chloro-2-(trifluoromethyl)benzyl]-1H-indazol-5-yl}methylidene)-1,3-thiazolidine-2,4-dione] displayed an EC50 of 20 nM.

The compound `COC(=O)C1(N2C(=O)S/C(=C\c3ccc4c(cnn4Cc4ccc(Cl)cc4C(F)(F)F)c3)C2=O)CCCC1` [Compound 232, Methyl 1-[(5Z)-5-({1-[4-chloro-2-(trifluoromethyl)benzyl]-1H-indazol-5-yl}methylidene)-2,4-dioxo-1,3-thiazolidin-3-yl]cyclopentanecarboxylate] yielded an EC50 of 107 nM.

`O=C1S/C(=C\c2ccc3c(cnn3Cc3ccc(C(F)(F)F)cc3C(F)(F)F)c2)C(=O)N1CCN1CCCC1` [Compound 84, (5Z)-5-({1-[2,4-Bis(trifluoromethyl)benzyl]-1H-indazol-5-yl}methylidene)-3-(2-pyrrolidin-1-ylethyl)-1,3-thiazolidine-2,4-dione] yielded an EC50 of 580 nM. Against the preceding compound, the EC50 is about 5.4-fold higher.

On to `O=C1S/C(=C\c2ccc3c(cnn3Cc3ccc(Cl)cc3C(F)(F)F)c2)C(=O)N1Cc1csc(NS(=O)(=O)C(F)(F)F)n1` [Compound 414, N-(4-{[(5Z)-5-({1-[4-Chloro-2-(trifluoromethyl)benzyl]-1H-indazol-5-yl}methylidene)-2,4-dioxo-1,3-thiazolidin-3-yl]methyl}-1,3-thiazol-2-yl)-1,1,1-trifluoromethanesulfonamide], for which the EC50 amounted to 109 nM.

On to `O=C1S/C(=C\c2ccc3c(cnn3Cc3ccc(Cl)cc3C(F)(F)F)c2)C(=O)N1C[C@@H]1C[C@@H](O)CN1CCO` [Compound 186, (5Z)-5-({1-[4-Chloro-2-(trifluoromethyl)benzyl]-1H-indazol-5-yl}methylidene)-3-{[(2S,4R)-4-hydroxy-1-(2-hydroxyethyl)pyrrolidin-2-yl]methyl}-1,3-thiazolidine-2,4-dione], for which a half-maximal response (EC50) required 54 nM.

`CN1CCC(CN2C(=O)S/C(=C\c3ccc4c(cnn4Cc4ccc(Cl)cc4C(F)(F)F)c3)C2=O)CC1` [Compound 134, (5Z)-5-({1-[4-Chloro-2-(trifluoromethyl)benzyl]-1H-indazol-5-yl}methylidene)-3-[(1-methylpiperidin-4-yl)methyl]-1,3-thiazolidine-2,4-dione] yielded an EC50 of 45 nM. This EC50 and that of the compound before are within 1.5-fold of each other.

As for `CC(C)[C@H](N)CN1C(=O)S/C(=C\c2ccc3c(cnn3Cc3ccc(Cl)cc3C(F)(F)F)c2)C1=O` [Compound 162, (5Z)-3-[(2S)-2-Amino-3-methylbutyl]-5-({1-[4-chloro-2-(trifluoromethyl)benzyl]-1H-indazol-5-yl}methylidene)-1,3-thiazolidine-2,4-dione], the EC50 is 32 nM.

In the case of `O=C1S/C(=C\c2ccc3c(cnn3Cc3ccc(Cl)cc3C(F)(F)F)c2)C(=O)N1C1(C(=O)O)CCCC1` [Compound 233, 1-[(5Z)-5-({1-[4-Chloro-2-(trifluoromethyl)benzyl]-1H-indazol-5-yl}methylidene)-2,4-dioxo-1,3-thiazolidin-3-yl]cyclopentanecarboxylic acid], the EC50 was 57 nM.

Take `O=C1S/C(=C\c2ccc3c(cnn3Cc3ccc(Cl)cc3C(F)(F)F)c2)C(=O)N1OCCN1CCCC1` [Compound 289, (5Z)-5-({1-[4-Chloro-2-(trifluoromethyl)benzyl]-1H-indazol-5-yl}methylidene)-3-(2-pyrrolidin-1-ylethoxy)-1,3-thiazolidine-2,4-dione]: the EC50 came out at 17 nM.

In turn, `O=C1S/C(=C\c2ccc3c(cnn3[C@H]3CCc4cc(Cl)ccc43)c2)C(=O)N1CCN1CCCC1` [Compound 172, (5Z)-5-({1-[(1S)-5-Chloro-2,3-dihydro-1H-inden-1-yl]-1H-indazol-5-yl}methylidene)-3-(2-pyrrolidin-1-ylethyl)-1,3-thiazolidine-2,4-dione] registered an EC50 of 300 nM.

`O=C1S/C(=C\c2ccc3c(cnn3Cc3ccc(Cl)cc3C(F)(F)F)c2)C(=O)N1[C@@H]1CCN(CCO)C[C@H]1F` (relative stereo) [Compound 327, (5Z)-5-({1-[4-Chloro-2-(trifluoromethyl)benzyl]-1H-indazol-5-yl}methylidene)-3-[trans-3-fluoro-1-(2-hydroxyethyl)piperidin-4-yl]-1,3-thiazolidine-2,4-dione] yielded an EC50 of 21 nM. Compared with the last compound, the EC50 is about 14-fold lower.

For `CN1CCC(C(=O)O)(N2C(=O)S/C(=C\c3ccc4c(cnn4Cc4ccc(Cl)cc4C(F)(F)F)c3)C2=O)CC1` [Compound 220, 4-[(5Z)-5-({1-[4-Chloro-2-(trifluoromethyl)benzyl]-1H-indazol-5-yl}methylidene)-2,4-dioxo-1,3-thiazolidin-3-yl]-1-methylpiperidine-4-carboxylic acid], the EC50 stood at 74 nM.

With `CCN1C[C@@H](F)[C@H](N2C(=O)S/C(=C\c3ccc4c(cnn4Cc4ccc(Cl)cc4C(F)(F)F)c3)C2=O)C1` (relative stereo) [Compound 320, (5Z)-5-({1-[4-Chloro-2-(trifluoromethyl)benzyl]-1H-indazol-5-yl}methylidene)-3-[trans-1-ethyl-4-fluoropyrrolidin-3-yl]-1,3-thiazolidine-2,4-dione], the EC50 amounted to 31 nM.

The compound `CN1CCN(N2C(=O)S/C(=C\c3ccc4c(cnn4Cc4ccc(Cl)cc4C(F)(F)F)c3)C2=O)CC1` [Compound 349, (5Z)-5-({1-[4-Chloro-2-(trifluoromethyl)benzyl]-1H-indazol-5-yl}methylidene)-3-(4-methylpiperazin-1-yl)-1,3-thiazolidine-2,4-dione] had an EC50 of 24 nM.

With `NC(=O)CN1CC[C@@H](CN2C(=O)S/C(=C\c3ccc4c(cnn4Cc4ccc(Cl)cc4C(F)(F)F)c3)C2=O)C1` [Compound 299, 2-[(3R)-3-{[(5Z)-5-({1-[4-Chloro-2-(trifluoromethyl)benzyl]-1H-indazol-5-yl}methylidene)-2,4-dioxo-1,3-thiazolidin-3-yl]methyl}pyrrolidin-1-yl]acetamide], the EC50 was found to be 37 nM.
